Laboratory results taken from paper PMC5573764, “Enzymatic characterization of a recombinant carbonyl reductase from Acetobacter sp. CCTCC M209061” (Bioresources and Bioprocessing, 2017).
Each block holds one compound with its values, some of them ahead of it.

Columns and labels:
Format in all cases: biochemical, Acetobacter sp. CCTCC M209061
[1] = target: T1, AcCR (recombinant carbonyl reductase; GAcCR) (Acetobacter sp., UniProt A0A2S1GUX7); test: NADH absorbance at […] nm, initial rates; details: pH 6.5, 35 °C (optimum conditions), GST-tagged enzyme
T1 construct: N-terminal GST fusion from pGEX-2T, tag kept, about 53 kDa on SDS-PAGE; E. coli BL21(DE3)pLysS
T1 sequence (A0A2S1GUX7 1-253): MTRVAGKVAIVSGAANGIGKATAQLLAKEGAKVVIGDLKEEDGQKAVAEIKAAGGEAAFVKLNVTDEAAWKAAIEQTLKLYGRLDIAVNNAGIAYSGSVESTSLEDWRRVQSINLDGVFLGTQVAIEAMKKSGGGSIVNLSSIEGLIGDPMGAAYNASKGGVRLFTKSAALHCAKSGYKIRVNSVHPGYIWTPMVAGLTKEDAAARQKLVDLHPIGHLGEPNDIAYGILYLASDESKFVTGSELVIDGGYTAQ

[2] = target: T1, AcCR (recombinant carbonyl reductase; GAcCR); test: NADH formation at […] nm, initial rates; details: 45 °C, optimum conditions (pH 8.0 in assay method, optimum 8.5), GST-tagged enzyme
[3] = target: T1, AcCR (recombinant carbonyl reductase; GAcCR); test: NADPH formation at […] nm, initial rates; details: oxidation of isopropanol; 45 °C; optimum conditions (pH 8.0 in assay method); GST-tagged enzyme

Structure (SMILES): CC(=O)c1ccc(Cl)cc1 [4′-Chloroacetophenone]
Km ([1]; co-substrate NADH): 260 µM

Structure (SMILES): CC(C)O [Isopropanol]
Km ([2]; co-substrate NAD+): 23800 µM

Structure (SMILES): NC(=O)C1=CN([C@@H]2O[C@H](COP(=O)(O)OP(=O)(O)OC[C@H]3O[C@@H](n4cnc5c(N)ncnc54)[C@H](O)[C@@H]3O)[C@@H](O)[C@H]2O)C=CC1 [NADH]
Km ([1]; reduction of 4'-chloroacetophenone): 160 µM

Continued, values first:

Km [3]: 1390 µM
Structure (SMILES): NC(=O)c1ccc[n+]([C@@H]2O[C@H](COP(=O)(O)OP(=O)(O)OC[C@H]3O[C@@H](n4cnc5c(N)ncnc54)[C@H](OP(=O)(O)O)[C@@H]3O)[C@@H](O)[C@H]2O)c1 [NADP^+]

Km ([2]; oxidation of isopropanol): 380 µM
Structure (SMILES): NC(=O)c1ccc[n+]([C@@H]2O[C@H](COP(=O)(O)OP(=O)(O)OC[C@H]3O[C@@H](n4cnc5c(N)ncnc54)[C@H](O)[C@@H]3O)[C@@H](O)[C@H]2O)c1 [NAD^+]
